Reference: patent US6440406B1, “Attractant for monitoring and control of adult scarabs” (The United States of America as represented by the …, priority 1997, dated 2002)

Assays:
Assay type in all cases: in vivo
Cotinis nitida = assay: Field trap capture, College Station, TX; conditions: number of incidents over the study where more than one target insect was trapped (male and female, 4 repetitions)
Protocol: (§1) The mixture of all five volatile components, prepared as described in Lopez et al. (U.S. patent application Ser. No. 09/166,655, filed Oct. 5, 1998) was evaluated as an attractant for scarabs. Evaluations using the mixture in traps were conducted at various sites at Dallas, Tex., adjacent to corn or cotton fields in an agricultural area SW of College Station, Tex., and in different habitats at various locations in Mexico. The primary trap used was the Trece Catch Can with a yellow top and a green catch container obtained from Trece, Inc., Salinas, Calif. At College Station only, wire cone traps originally designed to capture noctuid moths (Hartstack et al., Jour. Econ. Entomol., 72:319-322, 1979) were also used in the evaluations. The traps were operated about 1 meter above ground level and were spaced at different distances based on the amount of space available in which to conduct the evaluations. Treatments were assigned to traps in trap lines either randomly or rotated every time the traps were checked to minimize trap location effects. Attractants for evaluation were dispensed primarily from sintered polyethylene to which the attractant was added until saturated. The sintered polyethylene was placed in various plastic containers to facilitate placing on the traps for evaluation. At College Station only, cotton dental wicks were used to dispense the attractants for evaluation by applying the attractants mixed with methylene chloride as a solvent. Traps were checked as appropriate based on the number of numbers of scarabs trapped.
(§2) The volatile components were evaluated individually and in combination for efficacy for capturing scarabs. The evaluations were conducted as described in Example 1 near College Station, Tex., and Dallas, Tex., except that the volatile components were assayed individually as well.
(§3) In the College Station, Tex., data, the numbers represent the frequencies or number of incidents, over the course of the study, where more than one target insect was trapped (male and female, 4 repetitions). The Dallas, Tex., data represents the numbers of males/females captured. Abbreviations for the active agents tested are as follows: Mix M=five component mixture as described in Example 1, MMB=methyl-2-methoxybenzoate, MS=methyl salicylate, PA=phenylacetaldehyde, PE=2-phenylethanol, PEG=Japanese Beetle Lure, and SL=limonene.

Euphoria sedpulcralis = assay: Field trap capture, College Station, TX; conditions: number of incidents over the study where more than one target insect was trapped (male and female, 4 repetitions)
Protocol: as §1, §2, §3

Phyllophaga crassissima = assay: Field trap capture, Dallas, TX; conditions: baited traps
Protocol: as §1, §2, §3

Phyllophaga congrua = assay: Field trap capture, Dallas, TX; conditions: baited traps
Protocol: as §1, §2, §3

Phyllophaga crinita = assay: Field trap capture, Dallas, TX; conditions: baited traps
Protocol: as §1, §2, §3

Row | SMILES | Frequencies of trapping > 1 beetle (Cotinis nitida) | Frequencies of trapping > 1 beetle (Euphoria sedpulcralis) | no. females captured (Phyllophaga crassissima) | no. males captured (Phyllophaga crassissima) | no. females captured (Phyllophaga congrua) | no. males captured (Phyllophaga congrua) | no. females captured (Phyllophaga crinita) | no. males captured (Phyllophaga crinita)
1 | COC(=O)c1ccccc1OC [MMB, methyl-2-methoxybenzoate] | 1 | 0 | 11 | 16 | 3 | 0 | 7 | 8627
2 | C=C(C)[C@H]1CC=C(C)CC1 [SL, limonene] | 0 | 0 | 3 | 4 | 2 | 1 | 3 | 32
3 | O=CCc1ccccc1 [PA, phenylacetaldehyde] | 13 | 1 | 3 | 9 | 1 | 5 | 1 | 16
4 | CC=Cc1ccc(OC)cc1 [Anethol, reference compound] | 1 | 0 | 56 | 79 | 3 | 0 | 0 | 14
5 | COC(=O)c1ccccc1O [MS, methyl salicylate] | 0 | 0 | 10 | 6 | 0 | 4 | 0 | 23
6 | OCCc1ccccc1 [PE, 2-phenylethanol] | 2 | 0 | 5 | 8 | 2 | 5 | 1 | 11
